Data on 2 compounds can be found in patent publication US6618679B2, “Methods for analysis of gene expression” (priority 2000, dated 2003).

The series relates to Hep G2 (human hepatocellular carcinoma). As to the kind of experiment: Non-lethal concentration range for chemical exposure of Hep G2 cells. The series is classed as cell-based. Here is the method: The hepatocyte cell line, Hep G2 (human hepatocellular carcinoma, obtained from the American Type Culture Collection, Rockville Md., ATCC#HB-8065), was used to evaluate the effects of various chemicals on expression of a set of genes known to be involved in cellular toxicological responses. The cells were routinely maintained in T75 flasks in Eagle's MEM medium (with non-essential amino acids, sodium pyruvate, and Earle's salts) and 10% fetal bovine serum at 37° C. in a humidified atmosphere of 5% CO2. The chemicals used in exposure experiments included cadmium chloride (CdCl2) and methyl methane sulfonate (MMS). CdCl2 is a strong inducer of metallothionein, a metal-binding protein, and is known to be carcinogenic and capable of interfering with DNA repair. MMS is an alkylating agent that induces DNA damage. Dilutions of these compounds were prepared from concentrated stocks obtained from Aldrich Chemical Company (Milwaukee, Wis.). Water was used as the solvent control in dosing studies. […] These concentration ranges were empirically determined to not be lethal to cells for the duration of the exposure period. […] Cell number was quantitated using a dye incorporation assay, CyQUANT from Molecular Probes (Eugene, Oreg.).

`[Cl][Cd][Cl]` [CdCl2, cadmium chloride]: for the setting “final concentrations 10^-4M to 10^-6M CdCl2, 3 hours exposure”, the “lethality to cells for the duration of the exposure period” value is listed as “not be lethal”.

Regarding `COS(C)(=O)=O` [MMS, methyl methane sulfonate], the “lethality to cells for the duration of the exposure period” value (final concentrations 0.5 mM to 2 mM MMS, 3 hours exposure) is recorded as “not be lethal”.
